The values below come from ChEMBL document CHEMBL1144210, “Synthesis of all-trans anandamide: a substrate for fatty acid amide hydrolase with dual effects on rabbit platelet activation” (Bioorg Med Chem, 2008).

Each structure is given as a SMILES string. Calls of active or inactive are those of the source. The rule behind the calls is not given here.

As a reminder, the IC50 is the concentration needed to halve the response being measured. A higher IC50 goes with weaker potency.

In test [1] the test system is Platelet. As to the kind of experiment: Induction of platelet aggregation in New Zealand white rabbit ear vein plasma assessed as LDH activity at 0.36 mM. Format: functional, cell-based. Particulars: Oryctolagus cuniculus.
For test [2], the species on record is Oryctolagus cuniculus. As to the kind of experiment: Inhibition of FAAH in New Zealand white rabbit ear vein platelets assessed as [3H]anandamide hydrolysis at 1.5 uM.
The species entered for test [3] is Oryctolagus cuniculus. As to the kind of experiment: Inhibition of FAAH in New Zealand white rabbit ear vein platelet assessed as [3H]anandamide hydrolysis at 7.5 uM.
Test [4] has as its system Platelet. As to the kind of experiment: Inhibition of PAF-induced platelet aggregation in New Zealand white rabbit ear vein plasma. Format: functional, cell-based. Particulars: Oryctolagus cuniculus.
Test [5] relates to Platelet. As to the kind of experiment: Induction of platelet aggregation in New Zealand white rabbit ear vein plasma in presence of PMSF. Format: functional, Oryctolagus cuniculus.
Test [6] relates to Platelet. As to the kind of experiment: Induction of in New Zealand white rabbit ear vein plasma in presence of URB597. Format: functional, cell-based. The conditions noted are these: Oryctolagus cuniculus.
The subject of test [7] is Platelet. As to the kind of experiment: Induction of platelet aggregation in New Zealand white rabbit ear vein plasma at 100 uM to 1000 uM. Particulars: Oryctolagus cuniculus. Format: functional, cell-based.
For test [8], the system named is Platelet. As to the kind of experiment: Induction of platelet aggregation in New Zealand white rabbit ear vein plasma at 18 uM to 70 uM. Format: functional, cell-based. The conditions noted are these: Oryctolagus cuniculus.
Test [9] concerns Platelet. As to the kind of experiment: Induction of platelet aggregation in New Zealand white rabbit ear vein plasma in presence of indomethacin. Format: functional, cell-based. The conditions noted are these: Oryctolagus cuniculus.
In test [10] the test system is Platelet. As to the kind of experiment: Induction of platelet aggregation in New Zealand white rabbit ear vein plasma in presence of aspirin. Format: functional, cell-based. The conditions noted are these: Oryctolagus cuniculus.

On to `CCCCC/C=C\C/C=C\C/C=C\C/C=C\CCCC(=O)NCCO`, for which, in [1], the Activity entry is “Dose-dependent effect”. Moreover, the result in test [2] and in test [3] was Active.

In the case of `CCCCC/C=C/C/C=C/C/C=C/C/C=C/CCCC(=O)NCCO`, the result in [1], in [2], in test [9], in test [10] and in [3] was Active. This molecule also returned an IC50 in test [4] of 4.7 µM. In addition, the “inhibition (INH)” value in test [5] was 20%. The result in test [6] was inactive. Moreover, the Activity entry in test [7] and in test [8] was “Dose-dependent effect” each time.
